Experimental data reported in patent US9044015B2, “Heterocyclic compounds as pesticides” (Bayer CropScience AG, priority 2010, dated 2015).

Tests used:
Myzus persicae = test: Myzus test (spray treatment); assay type: in vivo; conditions: foliar, application rate 500 g/ha, sprayed Chinese cabbage leaf discs, all stages of green peach aphid, read-out: efficacy in % (aphids killed)
Method: Solvent 78 parts by weight of acetone • • 1.5 parts by weight of dimethylformamide
Emulsifier: 0.5 part by weight of alkylaryl polyglycol ether
To prepare an appropriate active ingredient preparation, 1 part by weight of active ingredient is mixed with the stated amounts of solvent and emulsifier, and the concentrate is diluted with emulsifier-containing water to the desired concentration.

Meloidogyne incognita = Meloidogyne incognita test; assay type: in vivo; conditions: application rate 20 ppm; lettuce in sand with egg/larvae suspension
Method: Meloidogyne Incognita Test
Solvent: 80.0 parts by weight of acetone
Vessels are filled with sand, active ingredient solution, Meloidogyne incognita egg/larvae suspension and lettuce seeds. The lettuce seeds germinate and the plants develop. Galls develop on the roots.
After the desired time, the nematicidal action is determined by the gall formation in %. 100% means that no galls were found; 0% means that the number of galls on the treated plants corresponds to the untreated control.

[1] = Determination of the log P values (formic acid method); conditions: reverse-phase C18 HPLC column
Method: 1) Description of Method for Determination of the log P Values (Formic Aid Method)
Eluents for determination in the acidic range (pH 3.4):
Eluent A: acetonitrile+1 ml of formic acid/liter. Eluent B: water+0.9 ml of formic acid/liter.
The lambda max values were determined in the maxima of the chromatographic signals using the UV spectra from 200 nm to 400 nm.

[2] = system: Myzus persicae organophosphate/carbamate resistant strain; test: Myzus spray test; conditions: application rate 100 ppm; after 6 days; sprayed aubergine plants; 100% = all insects killed
[3] = pH 3.4, logP (HCOOH), final compounds table, HPLC reverse-phase C18, acidic range pH 3.4, 55° C.

Row | chromatographic logP [1, 3] | Compound | pest or weed control at 500 g/ha (Myzus persicae) [%] | efficacy in % (nematicidal action by gall formation) (Meloidogyne incognita) [%] | chromatographic logP ([1]; pH 3.4, log P (HCOOH), preparation examples, HPLC-MS) | efficacy in % [2] [%]
1 | 3.08 | O=C(NS(=O)(=O)c1ccc(Cl)s1)c1cccc(-c2nnc(-c3cncc(F)c3)s2)n1 [Compound 78] | 100 | 100 |  | 
2 | 2.07 | CCS(=O)(=O)NC(=O)c1cccc(-c2nnc(-c3cncc(F)c3)s2)n1 [Compound 70] | 100 | 100 |  | 
3 | 2.77 | CC(C)(C)S(=O)(=O)NC(=O)c1cccc(-c2cnc(-c3cncc(F)c3)s2)n1 [Compound 56] | 100 | 100 |  | 
4 | 2.38 | O=C(NS(=O)(=O)c1cccs1)c1cccc(-c2nnc(-c3cncc(F)c3)s2)n1 [Compound 75] | 100 | 100 |  | 
5 |  | COC(=N)c1cccc(-c2cnc(-c3cncc(F)c3)s2)n1 [Compound 50, Methyl 6-[2-(5-fluoropyridin-3-yl)-1,3-thiazol-5-yl]pyridine-2-carboximidoate] |  |  | 0.9 | 100
6 |  | COC(=N)c1cccc(-c2cnc(-c3cccnc3)s2)n1 [Compound 49] |  |  |  | 100
